Target: Cyclin-dependent kinase 4 (Homo sapiens, UniProt P11802)
Assay: Caliper Mobility Shift Assay: CDK4: The test compound was dissolved in DMSO and diluted with a kinase buffer solution (20 mM HEPES-pH 7.5, 0.01% Triton X-100, 10 mM MgCl2, 2 mM DTT) and 5 μL of compound at 5-fold final concentration of reaction dissolved in 10% DMSO was added in a 384-well plate. The compound-free control well was 5 μL of 10% DMSO, and the no-activity control well was 5 μL of kinase buffer. 10 μL of a 2.5-fold diluted CDK4 enzyme solution (GST-CDK4(1-303 end)) was added and incubated at room temperature for 10 min, and then 10 μL of the 2.5-fold diluted substrate solution Peptide FAM-P8 was added. The reaction was stopped by adding 25 μL of stop solution after incubation at 28° C. for 3 h, and the conversion rate data was read on a Caliper EZ Reader II (Caliper Life Sciences) and the conversion rate was converted to inhibition rate data according to above method.

Chain of Cyclin-dependent kinase 4 (P11802 whole entry): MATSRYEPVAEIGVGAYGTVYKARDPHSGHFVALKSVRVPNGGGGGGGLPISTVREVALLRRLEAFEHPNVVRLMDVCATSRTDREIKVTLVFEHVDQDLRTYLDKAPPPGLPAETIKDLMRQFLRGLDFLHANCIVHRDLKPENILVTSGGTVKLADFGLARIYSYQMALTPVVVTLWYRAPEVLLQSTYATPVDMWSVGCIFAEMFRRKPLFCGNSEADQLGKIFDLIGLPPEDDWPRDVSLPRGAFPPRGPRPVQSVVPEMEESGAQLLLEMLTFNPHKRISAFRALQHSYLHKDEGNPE

| SMILES | IC50 [nM] |
| --- | --- |
| CC(C)c1c2ccc(-c3nc(Nc4ccc(N5CCNCC5)cn4)ncc3F)c(Cl)c2nn1C | < 20 |
| CC(C)c1c(C#N)n(C2CC2)c2ccc(-c3nc(Nc4ccc(CN5CCN(C6CC6)CC5)cn4)ncc3F)cc12 | < 20 |

Source: ChEMBL document CHEMBL5727392, “2,4-disubstituted pyrimidines as CDK inhibitors” (2019)
